The values below come from patent US20210269434A1, “TRICYCLIC COMPOUNDS AS INHIBITORS OF KRAS” (Incyte Corporation, priority 2020, published 2021).

The target in this test is KRAS G12D (Homo sapiens, UniProt P01116, G12D). The experiment in a line: GDP-GTP exchange assay (KRAS_G12D exchange). Particulars: bodipy loaded KRAS G12D 2.5 nM; 4 hours incubation after GppNHp-SOS1; read-out: G12D_exchange. The test is classed as biochemical. As to the method: Example A. GDP-GTP Exchange Assay
The inhibitor potency of the exemplified compounds was determined in a fluorescence based guanine nucleotide exchange assay, which measures the exchange of bodipy-GDP (fluorescently labeled GDP) for GppNHp (Non-hydrolyzable GTP analog) to generate the active state of KRAS in the presence of SOS1 (guanine nucleotide exchange factor). Inhibitors were serially diluted in DMSO and a volume of 0.1 μL was transferred to the wells of a black low volume 384-well plate. 5 μL/well volume of bodipy-loaded KRAS G12C diluted to 5 nM in assay buffer (25 mM Hepes pH 7.5, 50 mM NaCl, 10 mM MgCl2 and 0.01% Brij-35) was added to the plate and pre-incubated with inhibitor for 2 hours at ambient temperature. Appropriate controls (enzyme with no inhibitor or with a G12C inhibitor (AMG-510)) were included on the plate. The exchange was initiated by the addition of a 5 μL/well volume containing 1 mM GppNHp and 300 nM SOS1 in assay buffer. The 10 μL/well reaction concentration of the bodipy-loaded KRAS G12C, GppNHp, and SOS1 were 2.5 nM, 500 uM, and 150 nM, respectively. The reaction plates were incubated at ambient temperature for 2 hours, a time estimated for complete GDP-GTP exchange in the absence of inhibitor. For the KRAS G12D and G12V mutants, similar guanine nucleotide exchange assays were used with 2.5 nM as final concentration for the bodipy loaded KRAS proteins and with 4 hours and 3 hours incubation after adding GppNHp-SOS1 mixture for G12D and G12V respectively. A cyclic peptide described to selectively bind G12D mutant (Sakamoto et al., BBRC 484.3 (2017), 605-611) or internal compounds with confirmed binding were used as positive controls in the assay plates. Fluorescence intensities were measured on a PheraStar plate reader instrument (BMG Labtech) with excitation at 485 nm and emission at 520 nm.
Either GraphPad prism or XLfit was used to analyze the data. The IC50 values were derived by fitting the data to a four parameter logistic equation producing a sigmoidal dose-response curve with a variable Hill coefficient. Prism equation: Y=Bottom+(Top−Bottom)/(1+10^((Log lC50−X)*Hill slope)); XLfit equation: Y=(A+((B−A)/(1+((X/C)^D)))) where X is the logarithm of inhibitor concentration and Y is the response.

Sequence of KRAS G12D (P01116 1-188 isoform P01116-2 G12D): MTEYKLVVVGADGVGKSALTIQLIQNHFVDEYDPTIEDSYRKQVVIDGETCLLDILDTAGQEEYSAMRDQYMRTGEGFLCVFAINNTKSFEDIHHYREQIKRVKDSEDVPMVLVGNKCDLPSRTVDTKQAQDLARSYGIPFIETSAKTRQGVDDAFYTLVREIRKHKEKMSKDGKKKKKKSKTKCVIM

In the case of `CN(C)C1CN(c2nc3c(F)c(-c4cc(O)cc5ccccc45)c(Cl)cc3c3c2nc(C2CCS(=O)(=O)CC2)n3[C@H]2[C@H]3CN[C@@H]2C3)C1` (relative stereo) [Example 79, 4-(1-((endo)-2-azabicyclo[2.1.1]hexan-5-yl)-8-chloro-4-(3-(dimethylamino)azetidin-1-yl)-6-fluoro-7-(3-hydroxynaphthalen-1-yl)-1H-imidazo[4,5-c]quinolin-2-yl)tetrahydro-2H-thiopyran 1,1-dioxide], the IC50 is 100 to 1000 nM.
